Here are results for one molecule from publication PMC11593560 (International Journal of Molecular Sciences, 2024).

For this assay, the target named is T1, CAIX (Homo sapiens, UniProt Q16790).
T1 construct: gene CA9; hCAIX expressed in Xenopus oocytes; with rMCT4 (coexpressed)
As to the kind of experiment: inhibition of CAIX-mediated increase in MCT4 transport (intracellular H+ microelectrodes, Xenopus oocytes). The format is cell-based.

Take `O=C1NS(=O)(=O)c2cc(-n3cc(CCO[C@H]4O[C@@H](CO)[C@@H](O)[C@H](O)[C@@H]4O)nn3)ccc21` [BGal2C, Beta-Galactose-2C]: the IC50 was 89.9 ± 5.6 nM.
